From PMC6934184, “Selective DNA-PKcs inhibition extends the therapeutic index of localized radiotherapy and chemotherapy” (The Journal of Clinical Investigation, 2019) come the findings set out here.

By inhibition is commonly meant the relative decrease from the control value, in per cent.

For the assay, the target named is T1, HIPK3 (YAK1) (Homo sapiens, UniProt Q9H422).
T1 construct: purchased Thermo Fisher Scientific (Life Technologies) SelectScreen
The assay is described as follows: SelectScreen Z'LYTE. It counts as biochemical. The gist of the method: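 Compound tested in SelectScreen activity assays, Z'LYTE for CSF1R, CDK1/cyclin B and MAP2K6 and Adapta for CAMK1. ATP for CAMK1 was listed as 10, and Km app was used for CSF1R. Results are expressed in percent.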

T1 sequence (Q9H422 whole entry): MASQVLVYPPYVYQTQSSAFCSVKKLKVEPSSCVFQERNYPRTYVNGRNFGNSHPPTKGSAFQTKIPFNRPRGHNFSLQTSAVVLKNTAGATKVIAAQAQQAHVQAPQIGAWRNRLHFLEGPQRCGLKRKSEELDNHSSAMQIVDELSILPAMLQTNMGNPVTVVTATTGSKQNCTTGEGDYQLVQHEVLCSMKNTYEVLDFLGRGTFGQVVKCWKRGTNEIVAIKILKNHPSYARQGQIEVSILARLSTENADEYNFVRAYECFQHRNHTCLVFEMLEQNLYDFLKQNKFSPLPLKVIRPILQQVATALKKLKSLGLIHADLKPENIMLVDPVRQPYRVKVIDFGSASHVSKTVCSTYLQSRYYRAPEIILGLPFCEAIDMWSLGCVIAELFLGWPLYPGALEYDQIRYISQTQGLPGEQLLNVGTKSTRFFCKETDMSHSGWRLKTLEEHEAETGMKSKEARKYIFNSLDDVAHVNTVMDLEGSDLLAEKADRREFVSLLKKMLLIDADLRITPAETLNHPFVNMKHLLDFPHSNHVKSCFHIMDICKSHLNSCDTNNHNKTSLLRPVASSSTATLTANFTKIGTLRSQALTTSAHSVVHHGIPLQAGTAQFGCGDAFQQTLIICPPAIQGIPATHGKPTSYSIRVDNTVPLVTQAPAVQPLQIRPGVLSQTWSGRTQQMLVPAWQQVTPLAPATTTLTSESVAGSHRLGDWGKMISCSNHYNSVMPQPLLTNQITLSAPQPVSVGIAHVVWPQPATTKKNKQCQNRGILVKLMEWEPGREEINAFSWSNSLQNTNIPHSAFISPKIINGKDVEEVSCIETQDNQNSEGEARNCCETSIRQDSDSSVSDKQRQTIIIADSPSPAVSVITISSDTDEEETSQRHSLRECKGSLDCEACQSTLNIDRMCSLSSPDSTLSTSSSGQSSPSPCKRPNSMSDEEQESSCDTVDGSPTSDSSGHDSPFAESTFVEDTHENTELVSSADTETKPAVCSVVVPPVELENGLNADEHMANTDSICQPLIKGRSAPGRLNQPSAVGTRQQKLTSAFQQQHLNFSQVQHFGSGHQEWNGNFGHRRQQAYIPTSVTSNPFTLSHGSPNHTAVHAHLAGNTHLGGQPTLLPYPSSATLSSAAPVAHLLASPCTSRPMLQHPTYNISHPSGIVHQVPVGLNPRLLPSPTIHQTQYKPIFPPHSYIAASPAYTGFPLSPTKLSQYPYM

Compound `CN(C(=O)CN1CCOCC1)c1ccc2sc3c(-c4cccc5c(=O)cc(N6CC7CCC(C6)O7)oc45)cccc3c2c1` [NU5455] came in with an inhibition at 1 µM of 2.5%.
